Reference: PubChem BioAssay (NCI)
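Compound exposure: 48 hours, 5 concentrations, 96-well plates. At the GI50, growth is halved. TGI is the concentration that stops growth completely.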

Assays:
Experiment in all cases: DTP human tumour cell line panel, 48 h
[1] = system: KM12 colon
[2] = system: MCF7 breast
[3] = system: M14 melanoma
[4] = system: DU-145 prostate
[5] = system: A549 NSCLC
[6] = system: OVCAR-3 ovarian
[7] = system: T-47D breast
[8] = system: SK-MEL-2 melanoma
[9] = system: ACHN renal
[10] = system: RXF 393 renal

C[C@]12CC[C@@H](OC(=O)N(CCCl)N=O)C[C@@H]1CC[C@@H]1[C@@H]2CC[C@]2(C)C(=O)CC[C@@H]12
GI50 [1]: 2810 nM
TGI [1]: 16.3 µM
GI50 [2]: 1380 nM
TGI [2]: 19.2 µM
GI50 [3]: 14.7 µM
TGI [3]: 44.9 µM
GI50 [4]: 671 nM
TGI [4]: 7.54 µM
GI50 [5]: 730 nM
TGI [5]: 4.69 µM
GI50 [6]: 5.76 µM
TGI [6]: 19.9 µM
GI50 [7]: 2820 nM
TGI [7]: 55.9 µM
GI50 [8]: 17.1 µM
TGI [8]: 38 µM
GI50 [9]: 487 nM
TGI [9]: 13.8 µM

COC(=O)[C@]1(C)C(OC)=CC(=O)C2C1[C@H]1CCC[C@@H]21 (some centres not stated)
TGI [10]: > 100 µM
TGI [1]: > 100 µM
TGI [3]: > 100 µM
TGI [5]: > 100 µM
TGI [6]: > 100 µM
TGI [8]: > 100 µM
TGI [9]: > 100 µM

COC(=O)C(CC(=O)c1c[nH]c2ccccc12)c1c[nH]c2ccccc12 (configuration not stated)
TGI [10]: 28 µM
TGI [1]: > 10 µM
TGI [3]: 41.9 µM
TGI [5]: 60.1 µM
TGI [6]: > 10 µM
TGI [8]: 44.2 µM
TGI [9]: 37.7 µM

S=P(N1CCCC1)(N1CC1)N1CC1
TGI [10]: > 100 µM
TGI [1]: > 100 µM
TGI [3]: > 100 µM
TGI [5]: > 100 µM
TGI [6]: > 100 µM
TGI [8]: > 100 µM
TGI [9]: > 100 µM

CCOC(=O)c1c(-c2ccccc2)c(C(OC(c2ccccc2)c2c(-c3ccccc3)c(C(=O)OCC)n3ccccc23)c2ccccc2)c2ccccn12 (configuration not stated)
TGI [10]: > 100 µM
TGI [1]: > 100 µM
TGI [3]: > 100 µM
TGI [5]: > 100 µM
TGI [6]: > 100 µM
TGI [8]: > 100 µM
TGI [9]: > 100 µM

Nc1ccc(C(=O)CC2(O)C(=O)Nc3c(Cl)cc(Cl)cc32)cc1 (configuration not stated)
TGI [10]: > 100 µM
TGI [1]: > 100 µM
TGI [3]: > 100 µM
TGI [5]: > 100 µM
TGI [6]: > 100 µM
TGI [8]: > 100 µM
TGI [9]: > 100 µM

COc1cc(C2c3cc4c(cc3[C@@H](OCCN(C)C)C3COC(=O)[C@H]23)OCO4)cc(OC)c1O (some centres not stated)
TGI [10]: 1.97 µM
TGI [1]: 2.75 µM
TGI [3]: 3.22 µM
TGI [6]: 5.15 µM
TGI [8]: 4.03 µM
TGI [9]: 0.197 µM

Cc1ccc(/C=C2/NC(=S)SC2=O)cc1
TGI [1]: > 100 µM
TGI [2]: > 100 µM
TGI [3]: > 100 µM
TGI [4]: > 100 µM
TGI [5]: > 100 µM
TGI [6]: > 100 µM
TGI [7]: > 100 µM
TGI [8]: > 100 µM
TGI [9]: > 100 µM

CN1C(=O)C2C=CC1C1CCC2N(C)C1=O (configuration not stated)
TGI [10]: > 100 µM
TGI [1]: > 100 µM
TGI [3]: > 100 µM
TGI [5]: > 100 µM
TGI [6]: > 100 µM
TGI [8]: > 100 µM

O=c1cc(-c2ccccn2)[nH]c2cc(F)ccc12
TGI [10]: > 100 µM
TGI [1]: > 100 µM
TGI [3]: > 100 µM
TGI [5]: > 100 µM
TGI [6]: > 100 µM
TGI [9]: > 100 µM

CCCCCCCCCCCCCCCCCCNC(=O)OCC(CNS(=O)(=O)CCC[n+]1cccc2ccccc21)COC (configuration not stated)
TGI [10]: 55.8 µM
TGI [2]: 3.68 µM
TGI [3]: 25.9 µM
TGI [4]: 34.3 µM
TGI [5]: 25.9 µM
TGI [6]: 48.5 µM
TGI [7]: > 100 µM
TGI [9]: 29.9 µM

Cc1c(Cl)cccc1NC(=O)/C(Cl)=C(\Cl)C(=O)O
TGI [10]: 36.9 µM
TGI [1]: 31.1 µM
TGI [3]: 30.9 µM
TGI [5]: 38.9 µM
TGI [6]: 34.1 µM
TGI [8]: 49.2 µM
TGI [9]: 31.3 µM

COC(=O)C1Cc2c([nH]c3ccccc23)C(c2ccccc2O)N1Cc1ccccc1 (configuration not stated)
TGI [10]: 61.7 µM
TGI [1]: > 31.6 µM
TGI [3]: > 46.4 µM
TGI [5]: > 46.4 µM
TGI [6]: 39.2 µM
TGI [8]: > 31.6 µM
TGI [9]: 39.9 µM
